Laboratory results as given in patent US20060210528A1, “Therapy for tropical diseases” (Aspire Biotech, Inc., priority 2001, published 2006).

System: plantar warts
Test: Treatment of plantar warts on a patient's feet with an in situ polymeric film versus freezing
Type: in vivo, human
Experimental: The following examples illustrate how the methods of this invention could be used.
A patient presents to a dermatologist with two similar plantar warts on the soles of their left and right feet. The wart on the right foot is treated by freezing with liquid nitrogen.

N#N [liquid nitrogen] was tested, and the “pain on treated foot” value (plantar wart on sole of foot) was “makes walking on the foot painful for several days”, the “time until wart resolves” value (plantar wart on sole of foot, film re-applied every 3-4 days) was 3 weeks and the “return of wart after resolution” value (plantar wart, film treatment continued two weeks after resolution) was “has returned after two months”.
